Measurements from US12298306B2, “Marker for identifying patients with gliobastoma who respond positively to the drug regorafenib” (ISTITUTO ONCOLOGICO VENETO IOV-IRCCS, priority 2018, dated 2025).

What was measured:
glioblastoma = assay: REGOMA randomized, controlled, phase II clinical trial, survival by pACC Ser79 marker status; type: in vivo, patients
Method: Once all samples of the REGOMA trial which are available for the translational study (Table 1) have been stained, the biostatistics and clinical trial team of IOV (Mr. De Salvo—doctor) performed a statistical analysis to evaluate the possible prognostic or predictive meaning of the response of pACC^Ser79.
To evaluate the prognostic role of pACC^Ser79, an analysis was carried out according to the Cox model, considering pACC^Ser79 as an independent variable and dividing the patient samples into positive and negative (as reported above), and survival, being both free from disease progression and as a whole, as a dependent variable.
To evaluate the predictive role of pACC^Ser79, the variable of the treatment received by the patient was added to the Cox model (in particular, according to a randomized assignment, the patient received Regorafenib or Lomustine) in addition to the interaction factor of received treatment*status of the marker pACC^Ser79 (positive/negative).

[1] = test system: glioblastoma at diagnosis; details: in association with standard treatment; cited from earlier work

Row | Compound | benefit from treatment in patients with neoplastic tissue positive to pACC Ser79 (glioblastoma; Cox model with treatment*marker interaction, comparator Lomustine) | survival after second-line treatment in patients whose tumor samples express pACC Ser79 (glioblastoma; pACC Ser79 positive tumor samples, second-line treatment, REGOMA) | PFS [1] | quality of life [1] | survival (OS) [1]
1 | CNC(=O)c1cc(Oc2ccc(NC(=O)Nc3ccc(Cl)c(C(F)(F)F)c3)c(F)c2)ccn1 [Regorafenib] | most benefited | longer survival | – | – | –
2 | bevacizumab | – | – | improved | improved | no significant survival advantages
